# Assay results from US20100190747A1, “Fused ring compound and use thereof” (priority 2009, published 2010).
# Biological target: T1, delta-5-desaturase (Rattus norvegicus, UniProt Q920R3)
# T1 construct: the microsomal fraction of a rat river (10 μl), which had been diluted to 3 mg/ml; from tissue; host or cells: rat liver microsomal fraction
# Assay: Inhibitory activity on delta-5-desaturase (rat liver microsomal fraction, 14C-eicosatrienoic acid, TLC)
# Format: biochemical
# Conditions: test compound at 10 μM, room temperature, 120 minutes
# In short: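 Rat liver microsomes (3 mg/ml before addition) incubated with test compound at 10 μM, NADH, ATP, CoA and 14C-eicosatrienoic acid in phosphate buffer pH 7.4 with BSA and glutathione, 120 min at room temperature. Lipids saponified, extracted, separated by reverse-phase TLC and imaged; % inhibition reported.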
# T1 sequence (Q920R3 whole entry): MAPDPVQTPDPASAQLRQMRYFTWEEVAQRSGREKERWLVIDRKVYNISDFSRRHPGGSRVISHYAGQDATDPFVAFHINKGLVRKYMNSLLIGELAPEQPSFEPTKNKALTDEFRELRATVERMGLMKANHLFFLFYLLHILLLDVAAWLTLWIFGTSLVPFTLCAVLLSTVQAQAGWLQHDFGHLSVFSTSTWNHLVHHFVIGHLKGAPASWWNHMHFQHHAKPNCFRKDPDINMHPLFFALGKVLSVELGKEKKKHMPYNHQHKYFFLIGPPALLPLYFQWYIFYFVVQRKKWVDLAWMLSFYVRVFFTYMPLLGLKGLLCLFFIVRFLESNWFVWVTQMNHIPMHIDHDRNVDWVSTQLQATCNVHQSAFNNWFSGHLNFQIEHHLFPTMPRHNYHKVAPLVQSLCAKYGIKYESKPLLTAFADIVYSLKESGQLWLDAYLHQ
row,Compound,inhibition at 10 µM
1,"O=c1c2[nH]ccc2nc(SCCO)n1-c1ccc(OCC(F)(F)F)cc1 [Example 127, 2-[(2-Hydroxyethyl)sulfanyl]-3-[4-(2,2,2-trifluoroethoxy)phenyl]-3,5-dihydro-4H-pyrrolo[3,2-d]pyrimidin-4-one]",102%
2,"N#CCCNC(=O)CCCSc1nc2[nH]ccc2c(=O)n1-c1ccc(OCCCC(F)(F)F)cc1 [Example 186, N-(2-cyanoethyl)-4-({4-oxo-3-[4-(4,4,4-trifluorobutoxy)phenyl]-4,7-dihydro-3H-pyrrolo[2,3-d]pyrimidin-2-yl}sulfanyl)butanamide]",100%
3,"CC(C)Oc1nc2[nH]ccc2c(=O)n1-c1ccc(OCC(F)(F)F)c(F)c1 [Example 316, 3-[3-Fluoro-4-(2,2,2-trifluoroethoxy)phenyl]-2-(1-methylethoxy)-3,7-dihydro-4H-pyrrolo[2,3-d]pyrimidin-4-one]",103%
4,"CC(C)CCOc1ccc(-n2c(SCCCC(=O)NCCC#N)nc3cc[nH]c3c2=O)cc1 [Example 113, N-(2-cyanoethyl)-4-({3-[4-(3-methylbutoxy)phenyl]-4-oxo-4,5-dihydro-3H-pyrrolo[3,2-d]pyrimidin-2-yl}sulfanyl)butanamide]",102%
5,"O=C(CCCSc1nc2cc[nH]c2c(=O)n1-c1ccc(OCC(F)(F)F)cc1)N1CCCC1 [Example 110, 2-[(4-Oxo-4-pyrrolidin-1-ylbutyl)sulfanyl]-3-[4-(2,2,2-trifluoroethoxy)phenyl]-3,5-dihydro-4H-pyrrolo[3,2-d]pyrimidin-4-one]",102%
6,"CCOCCCSc1nc2cc[nH]c2c(=O)n1-c1ccc(OCC2CC2)cc1 [Example 139, 3-[4-(Cyclopropylmethoxy)phenyl]-2-[(3-ethoxypropyl)sulfanyl]-3,5-dihydro-4H-pyrrolo[3,2-d]pyrimidin-4-one]",101%
7,"CSc1nc2[nH]ccc2c(=O)n1-c1ccc(OCC(F)(F)F)cc1 [Example 212, 2-(Methylsulfanyl)-3-[4-(2,2,2-trifluoroethoxy)phenyl]-3,7-dihydro-4H-pyrrolo[2,3-d]pyrimidin-4-one]",98%
8,"COCCOCCCSc1nc2[nH]ccc2c(=O)n1-c1ccc(OCC(F)(F)F)cc1 [Example 191, 2-{[3-(2-Methoxyethoxy)propyl]sulfanyl}-3-[4-(2,2,2-trifluoroethoxy)phenyl]-3,7-dihydro-4H-pyrrolo[2,3-d]pyrimidin-4-one]",101%
9,"CCOCCCSc1nc2cc[nH]c2c(=O)n1-c1ccc(OCC(F)(F)F)cc1 [Example 81, 2-[(3-Ethoxypropyl)sulfanyl]-3-[4-(2,2,2-trifluoroethoxy)phenyl]-3,5-dihydro-4H-pyrrolo[3,2-d]pyrimidin-4-one]",97%
10,"CCS(=O)(=O)c1nc2[nH]ccc2c(=O)n1-c1ccc(OCC(F)(F)F)cc1 [Example 207, 2-(Ethylsulfonyl)-3-[4-(2,2,2-trifluoroethoxy)phenyl]-3,7-dihydro-4H-pyrrolo[2,3-d]pyrimidin-4-one]",101%
11,"O=c1c2[nH]ccc2nc(SCCN2CCOCC2)n1-c1ccc(OCC(F)(F)F)cc1 [Example 111, 2-[(2-Morpholin-4-ylethyl)sulfanyl]-3-[4-(2,2,2-trifluoroethoxy)phenyl]-3,5-dihydro-4H-pyrrolo[3,2-d]pyrimidin-4-one]",98%
12,"CSc1nc2[nH]ccc2c(=O)n1-c1ccc(OCC(F)(F)F)c(F)c1 [Example 237, 3-[3-Fluoro-4-(2,2,2-trifluoroethoxy)phenyl]-2-(methylsulfanyl)-3,7-dihydro-4H-pyrrolo[2,3-d]pyrimidin-4-one]",98%
13,"N#CCCCSc1nc2cc[nH]c2c(=O)n1-c1ccc(OCC(F)(F)F)cc1 [Example 86, 4-({4-Oxo-3-[4-(2,2,2-trifluoroethoxy)phenyl]-4,5-dihydro-3H-pyrrolo[3,2-d]pyrimidin-2-yl}sulfanyl)butanenitrile]",99%
14,"CC(C)OCC(O)CSc1nc2cc[nH]c2c(=O)n1-c1ccc(OCC(F)(F)F)cc1 (centres unmarked) [Example 130, 2-{[2-Hydroxy-3-(1-methylethoxy)propyl]sulfanyl}-3-[4-(2,2,2-trifluoroethoxy)phenyl]-3,5-dihydro-4H-pyrrolo[3,2-d]pyrimidin-4-one]",100%
15,"CC(C)(C)CCOc1ccc(-n2c(SCCCC(=O)NCCC#N)nc3[nH]ccc3c2=O)cc1 [Example 176, N-(2-cyanoethyl)-4-({3-[4-(3,3-dimethylbutoxy)phenyl]-4-oxo-4,7-dihydro-3H-pyrrolo[2,3-d]pyrimidin-2-yl}sulfanyl)butanamide]",98%
16,"N#CCCNC(=O)CCCSc1nc2c(C3CC3)c[nH]c2c(=O)n1-c1ccc(OCC(F)(F)F)cc1 [Example 170, N-(2-cyanoethyl)-4-({7-cyclopropyl-4-oxo-3-[4-(2,2,2-trifluoroethoxy)phenyl]-4,5-dihydro-3H-pyrrolo[3,2-d]pyrimidin-2-yl}sulfanyl)butanamide]",101%
17,"CC(C)(O)CNC(=O)CCCSc1nc2cc[nH]c2c(=O)n1-c1ccc(OCC(F)(F)F)cc1 [Example 99, N-(2-hydroxy-2-methylpropyl)-4-({4-oxo-3-[4-(2,2,2-trifluoroethoxy)phenyl]-4,5-dihydro-3H-pyrrolo[3,2-d]pyrimidin-2-yl}sulfanyl)butanamide]",94%

# Further lines, results first:
row,inhibition at 10 µM,Compound
1,97%,"N#CCSc1nc2c(c(=O)n1-c1ccc(OCC(F)(F)F)cc1)CC(=O)N2 [Example 312, ({4,6-Dioxo-3-[4-(2,2,2-trifluoroethoxy)phenyl]-4,5,6,7-tetrahydro-3H-pyrrolo[2,3-d]pyrimidin-2-yl}sulfanyl)acetonitrile]"
2,100%,"O=c1c2cc[nH]c2nc(SCC(F)(F)F)n1-c1ccc(OCC(F)(F)F)cc1 [Example 225, 3-[4-(2,2,2-Trifluoroethoxy)phenyl]-2-[(2,2,2-trifluoroethyl)sulfanyl]-3,7-dihydro-4H-pyrrolo[2,3-d]pyrimidin-4-one]"
3,103%,"CCSc1nc2[nH]ccc2c(=O)n1-c1ccc(OCC(F)(F)F)cc1 [Example 194, 2-(Ethylsulfanyl)-3-[4-(2,2,2-trifluoroethoxy)phenyl]-3,7-dihydro-4H-pyrrolo[2,3-d]pyrimidin-4-one]"
4,99%,"O=C1Cc2c(nc(OCC(F)(F)F)n(-c3ccc(OCC(F)(F)C(F)(F)F)cc3)c2=O)N1 [Example 306, 3-[4-(2,2,3,3,3-Pentafluoropropoxy)phenyl]-2-(2,2,2-trifluoroethoxy)-5,7-dihydro-3H-pyrrolo[2,3-d]pyrimidine-4,6-dione]"
5,102%,"O=C1Cc2c(nc(SCC3CC3)n(-c3ccc(OCC(F)(F)C(F)(F)F)cc3)c2=O)N1 [Example 323, 2-[(Cyclopropylmethyl)sulfanyl]-3-[4-(2,2,3,3,3-pentafluoropropoxy)phenyl]-5,7-dihydro-3H-pyrrolo[2,3-d]pyrimidine-4,6-dione]"
6,100%,"O=c1c2[nH]ccc2nc(SCCCS(=O)(=O)NCC(F)(F)F)n1-c1ccc(OCC(F)(F)F)cc1 [Example 107, 3-({4-Oxo-3-[4-(2,2,2-trifluoroethoxy)phenyl]-4,5-dihydro-3H-pyrrolo[3,2-d]pyrimidin-2-yl}sulfanyl)-N-(2,2,2-trifluoroethyl)propane-1-sulfonamide]"
7,100%,"CSc1nc2c(c(=O)n1-c1ccc(OCC(F)(F)F)cc1)CC(=O)N2 [Example 267, 2-(Methylsulfanyl)-3-[4-(2,2,2-trifluoroethoxy)phenyl]-5,7-dihydro-3H-pyrrolo[2,3-d]pyrimidine-4,6-dione]"
8,100%,"CCCSc1nc2cc[nH]c2c(=O)n1-c1ccc(OCC(F)(F)F)cc1 [Example 105, 2-(Propylsulfanyl)-3-[4-(2,2,2-trifluoroethoxy)phenyl]-3,5-dihydro-4H-pyrrolo[3,2-d]pyrimidin-4-one]"
9,101%,"CCC(CC)Sc1nc2c(c(=O)n1-c1ccc(OCC(F)(F)F)cc1)CC(=O)N2 [Example 340, 2-[(1-Ethylpropyl)sulfanyl]-3-[4-(2,2,2-trifluoroethoxy)phenyl]-5,7-dihydro-3H-pyrrolo[2,3-d]pyrimidine-4,6-dione]"
10,101%,"O=C1Cc2c(nc(SCC(F)(F)F)n(-c3ccc(OCC(F)(F)F)cc3)c2=O)N1 [Example 298, 3-[4-(2,2,2-Trifluoroethoxy)phenyl]-2-[(2,2,2-trifluoroethyl)sulfanyl]-5,7-dihydro-3H-pyrrolo[2,3-d]pyrimidine-4,6-dione]"
11,99%,"CCSc1nc2c(c(=O)n1-c1ccc(OCC(F)F)cc1)CC(=O)N2 [Example 270, 3-[4-(2,2-Difluoroethoxy)phenyl]-2-(ethylsulfanyl)-5,7-dihydro-3H-pyrrolo[2,3-d]pyrimidine-4,6-dione]"
12,100%,"O=c1c2[nH]ccc2nc(SCC(F)(F)F)n1-c1ccc(OCC(F)(F)F)cc1 [Example 103, 3-[4-(2,2,2-Trifluoroethoxy)phenyl]-2-[(2,2,2-trifluoroethyl)sulfanyl]-3,5-dihydro-4H-pyrrolo[3,2-d]pyrimidin-4-one]"
13,105%,"COCCSc1nc2c(c(=O)n1-c1ccc(OCC(F)(F)F)cc1)CC(=O)N2 [Example 325, 2-[(2-Methoxyethyl)sulfanyl]-3-[4-(2,2,2-trifluoroethoxy)phenyl]-5,7-dihydro-3H-pyrrolo[2,3-d]pyrimidine-4,6-dione]"
14,96%,"CC(C)Sc1nc2c(c(=O)n1-c1ccc(OCC(F)(F)F)cc1)CC(=O)N2 [Example 285, 2-[(1-Methylethyl)sulfanyl]-3-[4-(2,2,2-trifluoroethoxy)phenyl]-5,7-dihydro-3H-pyrrolo[2,3-d]pyrimidine-4,6-dione]"
15,98%,"O=c1c2cc[nH]c2nc(SC(F)(F)F)n1-c1ccc(OCC(F)(F)F)cc1 [Example 253, 3-[4-(2,2,2-Trifluoroethoxy)phenyl]-2-[(trifluoromethyl)sulfanyl]-3,7-dihydro-4H-pyrrolo[2,3-d]pyrimidin-4-one]"
